From patent publication US10308685B2, “Inhibitory peptides of viral infection” (UNIVERSITY OF TENNESSEE RESEARCH FOUNDATION, priority 2014, dated 2019)
Where no end group is shown, it is not given here.

Tests used:
MCMV [1] = type: cell-based, Murine Cytomegalovirus
Protocol: (§1) Murine Cytomegalovirus (MCMV) RM4503 was cultured in vitro in MEF 10.1 cells. The virus stock was titered using plaque assay (described below) and stored at −80° C. Human Cytomegalovirus (HCMV) TB40/E was obtained from (46, 47) and cultures in vitro in HFF cells. The virus stock was titered using plaque assay and stored at −80° C. HSV-1 and HSV-2 were cultured in vitro in VERO cells. The virus stock was titered using plaque assay and stored at −80° C.
(§2) Peptides were screened for their ability to reduce viral infection using a plaque reduction assay. Cells were cultured in 12-well (VERO) or 24-well culture plates (MEF 10.1 and HFF). When the cells reached ˜80% confluence the media was removed and the cells washed once with PBS before addition of peptide. As a control, cells were incubated with PBS alone. After a 30 min of incubation with peptide in PBS, the virus was added and incubated for another 90 min (HSV and HCMV) or 60 min (MCMV). Following virus incubation the peptide/virus mixture was removed and replaced with 0.75% carboxy-methyl cellulose (Sigma Aldrich, St. Louis, Mo.)+complete media (CMC) or 0.5% agarose (Lonza, Rockland, Me.) in complete media. The plates were incubated at 37° C. in 5% CO2 for 4 days when plaques began to develop, following which they were stained with Coomassie stain (AMRESCO, Solon, Ohio). Plaques were counted manually and data analyzed using Prism 5.0 (GraphPad Software, La Jolla, Calif.). Data were expressed as % plaques relative to the average number of plaques in the PBS-treated wells.
In the initial screening assays all peptides were tested at a single concentration (500 μg/ml) using a plaque-reduction assay, in which mouse embryonic fibroblasts were incubated with the peptides for 30 min prior to the addition of virus.
In the infectivity assays described above the peptide and virus were co-incubated with the cells. Therefore to ensure the peptide was not directly inactivating the virus, MCMV was incubated with 100 μM (˜20× the IC50) peptide at 37° C. for 1 h, diluted to an ineffective peptide concentration (1 μM) and fibroblast infection rates measured.
To determine at which stage of the MCMV entry cycle the peptide interferes, four different peptide treatment protocols were tested, 1) 30 min. prior to infection (pre-adsorption) 2) simultaneously with virus (during adsorption) 3) after letting the virus adsorb to the cells at 4° C. for lhr (post adsorption) or 4) after allowing the virus to fuse with the cell membrane at 37° C. for lhr (post fusion) (FIG. 3(B)).

MCMV [2] = assay: Interference of peptide mediated reduction by heparin (MCMV plaque reduction); type: cell-based, Murine Cytomegalovirus; details: peptide 100 μM pre-incubated with heparin 1 h at 37° C. before addition to cells
Protocol: Peptide GGGY-p5+14 (SEQ ID NO: 25) (at 100 μM) was pre-incubated with heparin sodium salt (Acros Organics, NJ) at different concentrations for 1 h at 37° C. Following which the heparin/peptide mix was added to the cells and incubated for 30 min at 37° C. Following the incubation, the supernatant was aspirated and cells washed once with PBS to remove unbound/excess heparin or peptide. The cells were subsequently infected with ˜100 pfu/well of MCMV. To test whether heparin treatment of cells interferes with virus infection, MEF 10.1 cells in a 24 well dish were pre-incubated with different concentrations of heparin for 1 hour and washed as described above. Following the pre-incubation infection was initiated as mentioned above. Finally to test the effect of heparin treatment on the infectivity of virus, MCMV was incubated with different concentration of heparin for lhr before infecting cells. For all these treatments, the virus was removed lhr post infection and cells overlaid with CMC. Plates were incubated for 4 days before staining and counting the plaques. Plaque reduction assay was performed as mentioned above.

MCMV [3] = assay: Enzymatic treatment of cells (heparinase / chondroitinase) followed by MCMV plaque reduction assay; type: cell-based, Murine Cytomegalovirus
Protocol: (§3) Heparinase I (cat. # H2519), Heparinase II (cat. # H6512), Heparinase III (cat. # H8891) and Chondroitinase ABC (cat. # C3667) were obtained from Sigma Aldrich (St. Louis, Mo.). MEF 10.1 cells in culture were treated with heparinase re-suspended in heparinase buffer (20 mM Tris-HCl, pH 7.5, 50 mM NaCl, 4 mM CaCl2, and 0.01% BSA) at a concentration of 1 U/ml or chondroitinase re-suspended in chondroitinase buffer (50 mM Tris, pH 8.0, 60 mM sodium acetate and 0.02% bovine serum albumin) at a concentration of 1 U/ml for 1 h. at 37° C. As a control, cells were treated with enzyme buffer alone. Following incubation the enzyme solution was removed and cells were washed once with PBS to remove excess enzyme. Subsequently the cells were treated with peptide or infected with virus. The data was collected and analyzed as described previously.

MEF 10.1 cells [4] = assay: Visualization of bound biotinylated peptide on fixed MEF cells (fluorescence); type: binding, Mouse; details: 1.6 μg/mL, streptavidin fluorescence
Protocol: Coverslips with fixed MEF cells prepared, washed in PBS and blocked with 1% BSA/PBS for 5 min. Following a PBS wash the nuclei were stained by using Hoechst (Life Technologies Molecular Probes, Grand Island, N.Y.) 1:100 in H2O— for 30 min at 37° C. Tissues were then blocked using a casein block solution (Scytek) for 5 min, AVIDIN/Biotin blocks (VECTOR, Burlingame, Calif.) for 20 min each at room temperature (RT) followed by a 5 min PBS wash. Biotinylated GGGY-p5+14 (SEQ ID NO: 25) or p5G (control) at 1.6 μg/mL in PBS was added and the tissues incubated overnight at 4° C. Following a PBS wash Alexa Fluor 594-conjugated streptavidin (Molecular Probes) was added at a 1:200 dilution in PBS for lhr at RT. Cells were then permeabilized by addition of 0.2% Triton X-100 (Sigma) in PBS for 10 min at RT and washed with a solution of 1% BSA in PBS for 30 min. The cells were then stained with Alexa Fluor 488-conjugated phalloidin (Molecular Probes) 1:100 dilution of stock in 1% BSA/PBS, for 45 min. at RT to visualize cytoskeleton. Slides were cover-slipped using a fluorescent mounting medium (Dako, Carpinteria, Calif.) to minimize photobleaching.

MEF 10.1 cells [5] = assay: Measuring amount of bound biotinylated peptide on MEF 10.1 cells (time resolved fluorescence); type: binding, Mouse
Protocol: as §3
MEF 10.1 Cells were grown in 24-well cell culture plates as described above. Each well was probed with 100 μL of biotinylated peptides at 1 μg/mL in cold DMEM/F12 with 0.1% BSA and incubated for one hour at 4° C. Following the incubation the cells were washed twice with ice cold PBS and fixed with 1.25% glutaraldehyde. Fixed samples were washed twice and stored in PBS for 24 hours. […] The plate was washed three times with PBS, enhancement solution added, and time resolved fluorescence measured on the Wallac Victor 3 (Perkin-Elmer).

HCMV = assay: Plaque reduction assay, HCMV infectivity in HFF cells; type: cell-based, Human Cytomegalovirus; details: 100 μM
Protocol: as §1
as §2, with “The plates were incubated at 37° C. in 5% CO2 for 4 days when plaques began to develop, following which they were stained with Coomassie stain (AMRESCO, Solon, Ohio).” left out

HSV-2 = assay: Plaque reduction assay, HSV-2 in VERO cells; type: cell-based, herpes simplex virus; details: 100 μM
Protocol: as §1
as §2, with “The plates were incubated at 37° C. in 5% CO2 for 4 days when plaques began to develop, following which they were stained with Coomassie stain (AMRESCO, Solon, Ohio).” left out

[6] = mouse, in vivo; cited from earlier work

GGGYSKAQKAQAKQAKQAQKAQKAQAKQAKQAQKAQKAQAKQAKQ [GGGY-p5+14]
IC50 (MCMV [1]): 5.2 µM | reduction in infection (MCMV) (MCMV [1]; 10 μM): > 80% | inhibition of MCMV infection (MCMV [1]; 100 μM): effectively inhibited | inhibition of MCMV infection (plaque reduction) (MCMV [1]; 500 μg/ml, mouse embryonic fibroblasts incubated with peptide 30 min prior to virus): > 90% | direct neutralizing effect on the virus (MCMV [1]; MCMV incubated with 100 μM peptide at 37° C. for 1 h, diluted to 1 μM): did not have any direct neutralizing effect on the virus itself | plaque formation, peptide added after the adsorption or fusion phase of viral entry (MCMV [1]; post adsorption or post fusion): no significant reduction in plaque formation | infection (plaque formation), peptide added before or in conjunction with virus addition (MCMV [1]; pre-adsorption or during adsorption): > 80% | concentrations giving significant reduction in infection (MCMV [1]; serial dilution of peptide, FIG. 1(B)): > 5 µg/mL | effect of pre-incubation of peptide with heparin on inhibition of MCMV infection (MCMV [2]): reduced its ability to inhibit MCMV infection in a dose-dependent manner | effect of chondroitinase treatment of cells on the activity of the peptide (MCMV [3]; chondroitinase 1 U/ml): nor did it have any effect on the activity of the peptide | reduction in MCMV infectivity, peptide added to heparinase treated cells (MCMV [3]; heparinase 1 U/ml plus peptide): ~80% | binding to mouse fibroblasts in culture (MEF 10.1 cells [4]): bound mouse fibroblasts | reduction in the amount of bound peptide (MEF 10.1 cells [5]; cells treated with chondroitinase): ~11% | reduction in the amount of bound peptide (MEF 10.1 cells [5]; cells treated with heparinase): ~40% | reduction of infection (HCMV) (HCMV): ~80% | reduction of HSV 2 infection (HSV-2): ~40% | peptide binding to GAGs expressed in healthy organs or tissues [6]: no evidence of peptide binding to GAGs expressed in healthy organs or tissues
